Assay results: patent US20220204498A1, “PYRIDO-PYRIMIDINYL COMPOUNDS AND METHODS OF USE” (Genentech, Inc., priority 2019, published 2022)

Molecular target: T1, IRE1α (Homo sapiens, UniProt O75460, D688N)
T1 construct: containing the kinase and RNase domains (KR, AA G547-1L977, D688N); made in house; host or cells: Sf9 insect cells
Test: IRE1α TR-FRET competition binding assay (IRE1α HTRF)
Settings: His-tagged IRE1α kinase dead construct (KR, D688N) 0.25 nM; Alexa fluor 647-labeled ATP competitive probe 2 nM; one hour at room temperature; read-out: IRE1α (alpha) HTRF (IC50)
Protocol: Example 59. IRE1α TR-FRET Competition Binding Assay
To determine the affinity of compound binding to the kinase domain of IRE1α, a time-resolved fluorescence resonance energy transfer (TR-FRET) competition assay was used.
A His-tagged IRE1α kinase dead construct containing the kinase and RNase domains (KR, AA G547-1L977, D688N) was expressed in Sf9 insect cells. The purified protein (final concentration 0.25 nM) was pre-incubated with anti-His Europium labeled antibody (Life Technologies PV5596, final concentration 2 nM) for one hour at 4° C. in TR-FRET Assay Buffer (50 mM HEPES, pH 7.5, 10 mM MgCl2, 0.083 mM Brij 35, 1 mM DTT, and 0.1% bovine gamma globulin) prior to addition to test compounds. An Alexa fluor 647-labeled probe based on an ATP competitive inhibitor was added to a final concentration of 2 nM. Reactions were carried out for one hour at room temperature in a final volume of 20 μL in 384 well white ProxiPlates (Perkin Elmer 6008289). Binding of the probe to the IRE1α protein was detected in an Envision instrument (PerkinElmer) equipped with a TRF laser option and a LANCE/Delfia Dual/Bias D400/D630 mirror (Ex 347 nm, 1st Em 665 nm, 2nd Em 615 nm).

T1 sequence (O75460 547-977 D688N): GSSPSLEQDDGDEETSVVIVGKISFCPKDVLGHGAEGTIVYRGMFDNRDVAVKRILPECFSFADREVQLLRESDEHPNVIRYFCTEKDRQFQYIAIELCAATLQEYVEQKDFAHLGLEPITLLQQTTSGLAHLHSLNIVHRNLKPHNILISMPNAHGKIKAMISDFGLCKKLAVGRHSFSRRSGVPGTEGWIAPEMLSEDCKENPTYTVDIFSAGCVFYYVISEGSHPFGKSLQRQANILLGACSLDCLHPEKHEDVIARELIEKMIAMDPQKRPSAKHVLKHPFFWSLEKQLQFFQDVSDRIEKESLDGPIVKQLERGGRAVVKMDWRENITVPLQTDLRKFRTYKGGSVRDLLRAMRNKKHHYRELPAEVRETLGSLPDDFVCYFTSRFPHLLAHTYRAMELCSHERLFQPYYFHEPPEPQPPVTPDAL

IC50 [nM]	SMILES
0.16	CN(C)[C@H]1CC[C@H](Nc2ncc3nc(-c4ccc(NS(=O)(=O)CCC(F)(F)F)c(F)c4)cc(C(F)F)c3n2)CC1 [Compound 144, N-[(1,4-trans)-4-[8-(Difluoromethyl)-2-[[4-(dimethylamino)cyclohexyl]amino]pyrido[3,2-d]pyrimidin-6-yl]-2-fluoro-phenyl]-3,3,3-trifluoro-propane-1-sulfonamide]
0.25	Cc1nc(NS(=O)(=O)c2ccccc2Cl)ccc1-c1cc(C(F)F)c2nc(N[C@H]3CC[C@H](N(C)C)CC3)ncc2n1 [Compound 145, 2-Chloro-N-[5-[8-(difluoromethyl)-2-[[(1,4-trans)-4-(dimethylamino)cyclohexyl]amino]pyrido[3,2-d]pyrimidin-6-yl]-6-methyl-2-pyridyl]benzenesulfonamide]
0.21	CCc1cc(-c2ccc(NS(=O)(=O)c3ccccc3F)nc2C)nc2cnc(N[C@H]3CC[C@H](N(C)C)CC3)nc12 [Compound 146, N-(5-(2-(((1,4-trans)-4-(dimethylamino)cyclohexyl)amino)-8-ethylpyrido[3,2-d]pyrimidin-6-yl)-6-methylpyridin-2-yl)-2-fluorobenzenesulfonamide]
0.28	CCc1cc(-c2ccc(NS(=O)(=O)c3ccccc3C(F)F)nc2C)nc2cnc(N[C@H]3CC[C@H](N(C)C)CC3)nc12 [Compound 147, 2-(Difluoromethyl)-N-(5-(2-(((1,4-trans)-4-(dimethylamino)cyclohexyl)amino)-8-ethylpyrido[3,2-d]pyrimidin-6-yl)-6-methylpyridin-2-yl)benzenesulfonamide]
0.51	CCc1cc(-c2ccc(NS(=O)(=O)c3ccccc3OC(F)F)nc2C)nc2cnc(N[C@H]3CC[C@H](N(C)C)CC3)nc12 [Compound 148, 2-(Difluoromethoxy)-N-(5-(2-(((1,4-trans)-4-(dimethylamino)cyclohexyl)amino)-8-ethylpyrido[3,2-d]pyrimidin-6-yl)-6-methylpyridin-2-yl)benzenesulfonamide]
3.3	Cc1cc(NS(=O)(=O)c2ccccc2Cl)ncc1-c1cc(C)c2nc(N[C@H]3CC[C@H](N(C)C)CC3)ncc2n1 [Compound 149, 2-Chloro-N-(5-(2-(((1,4-trans)-4-(dimethylamino)cyclohexyl)amino)-8-methylpyrido[3,2-d]pyrimidin-6-yl)-4-methylpyridin-2-yl)benzenesulfonamide]
0.15	Cc1cc(-c2ccc(NS(=O)(=O)c3ccccc3C#N)c(F)c2)nc2cnc(N[C@H]3CC[C@H](N(C)C)CC3)nc12 [Compound 150, 2-Cyano-N-[(1,4-trans)-4-[2-[[4-(dimethylamino)cyclohexyl]amino]-8-methyl-pyrido[3,2-d]pyrimidin-6-yl]-2-fluoro-phenyl]benzenesulfonamide]
39	Cc1cc(-c2ccc3c(c2)CCS(=O)(=O)N3)nc2cnc(N[C@H]3CC[C@H](N(C)C)CC3)nc12 [Compound 151, 6-(2-(((1,4-trans)-4-(Dimethylamino)cyclohexyl)amino)-8-methylpyrido[3,2-d]pyrimidin-6-yl)-3,4-dihydro-1H-benzo[c][1,2]thiazine 2,2-dioxide]
0.12	CCc1cc(-c2ccc(NS(=O)(=O)Cc3ccc(S(C)(=O)=O)cc3)c(F)c2)nc2cnc(N[C@H]3CC[C@H](N(C)C)CC3)nc12 [Compound 152, N-(4-(2-(((1,4-trans)-4-(Dimethylamino)cyclohexyl)amino)-8-ethylpyrido[3,2-d]pyrimidin-6-yl)-2-fluorophenyl)-1-(4-(methylsulfonyl)phenyl)methanesulfonamide]
0.16	Cc1cc(-c2cc(F)c(NS(=O)(=O)Cc3ccc(F)cc3)c(F)c2F)nc2cnc(N[C@H]3CC[C@H](N(C)C)CC3)nc12 [Compound 153, N-(4-(2-(((1,4-trans)-4-(Dimethylamino)cyclohexyl)amino)-8-methylpyrido[3,2-d]pyrimidin-6-yl)-2,3,6-trifluorophenyl)-1-(4-fluorophenyl)methanesulfonamide]
0.21	Cc1cc(-c2ccc(NS(=O)(=O)c3cccnc3)c(F)c2)nc2cnc(N[C@H]3CC[C@H](N(C)C)CC3)nc12 [Compound 154, N-[4-[2-[[(1,4-trans)-4-(Dimethylamino)cyclohexyl]amino]-8-methyl-pyrido[3,2-d]pyrimidin-6-yl]-2-fluoro-phenyl]pyridine-3-sulfonamide]
0.19	Cc1cc(-c2cc(F)c(NS(=O)(=O)c3ccccc3Cl)c(F)c2F)nc2cnc(N[C@H]3CC[C@H](N(C)C)CC3)nc12 [Compound 155, 2-Chloro-N-(4-(2-(((1,4-trans)-4-(dimethylamino)cyclohexyl)amino)-8-methylpyrido[3,2-d]pyrimidin-6-yl)-2,3,6-trifluorophenyl)benzenesulfonamide]
0.18	Cc1cc(-c2ccc(NS(=O)(=O)c3cnccc3C(F)(F)F)c(F)c2)nc2cnc(N[C@H]3CC[C@H](N(C)C)CC3)nc12 [Compound 156, N-[4-[2-[[(1,4-trans)-4-(Dimethylamino)cyclohexyl]amino]-8-methyl-pyrido[3,2-d]pyrimidin-6-yl]-2-fluoro-phenyl]-4-(trifluoromethyl)pyridine-3-sulfonamide]
0.23	Cc1cc(-c2ccc(NS(=O)(=O)c3cccnc3C(F)(F)F)c(F)c2)nc2cnc(N[C@H]3CC[C@H](N(C)C)CC3)nc12 [Compound 157, N-[4-[2-[[(1,4-trans)-4-(Dimethylamino)cyclohexyl]amino]-8-methyl-pyrido[3,2-d]pyrimidin-6-yl]-2-fluoro-phenyl]-2-(trifluoromethyl)pyridine-3-sulfonamide]
0.2	Cc1cc(-c2ccc(NS(=O)(=O)c3ccccn3)c(F)c2)nc2cnc(N[C@H]3CC[C@H](N(C)C)CC3)nc12 [Compound 158, N-(4-(2-(((1,4-trans)-4-(Dimethylamino)cyclohexyl)amino)-8-methylpyrido[3,2-d]pyrimidin-6-yl)-2-fluorophenyl)pyridine-2-sulfonamide]
0.33	Cc1nc(NS(=O)(=O)c2ccccc2C#N)ccc1-c1cc(C)c2nc(N[C@H]3CC[C@H](N(C)C)CC3)ncc2n1 [Compound 159, 2-Cyano-N-(5-(2-(((1,4-trans)-4-(dimethylamino)cyclohexyl)amino)-8-methylpyrido[3,2-d]pyrimidin-6-yl)-6-methylpyridin-2-yl)benzenesulfonamide]
